{"source": "paper PMC8911579", "about": "“(−)-Naringenin 4′,7-dimethyl Ether Isolated from Nardostachys jatamansi Relieves Pain through Inhibition of Multiple Channels” (Molecules, 2022)", "key": {"[1]": {"assay": "pharmacokinetic study, plasma concentration after intraperitoneal administration", "format": "in vivo, ICR mice", "procedure": "The pharmacokinetic study was performed in male ICR mice weighted 20 ± 2 g. The mice were fasted for 12 h before intraperitoneal administration of (−)-NRG-DM at 50 mg/kg. Blood samples (0.5 mL) were collected at 0.5, 1, and 1.5 h from the abdominal aorta into the heparinized tubes after drug administration. The plasma was separated by centrifugation (11,000 rpm for 5 min) and then stored at −80 °C until analyzed. Plasma samples (20 μL) were treated with the addition of the internal standard solution (20 μL) and acetonitrile (300 μL), then vortexed for 15 min (1000 rpm, RT), and centrifuged of 15 min (3700 rpm, 4 °C). The supernatants were collected for analysis using LC−MS/MS. The data were processed using Analyst software version 1.6.3 (Sciex, ON, Canada)."}, "[2]": {"test_system": "transient outward potassium currents (IA) in DRG neurons", "assay": "whole-cell patch-clamp, transient outward potassium currents in DRG neurons", "format": "cell-based", "details": "Mus musculus, DRG neuron; n = 5", "description": "The currents in mouse DRG neurons can be separated into IA and IK. They could be distinguished by applying voltage steps from a holding potential of −50 mV, at which IA was almost completely inactivated, while IK remained unchanged. Thereby, IA could be separated by subtracting IK from the total potassium currents. According to these electrophysiological characteristics, the effects of (−)-NRG-DM on potassium currents were examined (Figure 5A). […] Additionally, the effects of (−)-NRG-DM on the kinetics of the Kv channels were further characterized. The Kv currents were elicited by multiple 1500 ms depolarization pulses ranging from −80 mV to +90 mV in 10 mV increments from a holding potential of −80 mV. […] The values of V1/2 in the absence and presence of 10 µM (−)-NRG-DM were −6.43 ± 1.21 mV and −8.08 ± 2.02 mV, respectively (Figure 5D).\nDorsal root ganglia (DRG) were dissected from male C57BL/6 mice aged 4~6 weeks. The ganglia were first cut into small pieces and then digested at 37 °C for 20 min in DMEM containing 1 mg/mL collagenase type I and 0.25 mg/mL trypsin (Sigma-Aldrich). Subsequently, the digested small fragments were terminated and resuspended with DMEM/F12 growth medium (Gibco) supplemented with 10% fetal bovine serum (FBS) (Gibco). […]"}, "[3]": {"test_system": "motor coordination in mice", "assay": "rotarod test (motor impairment / neurotoxicity)", "format": "in vivo, ICR mice", "procedure": "To exclude possible non-specific muscle relaxant or sedative effects, the effects of (−)-NRG-DM on motor performance were evaluated in the rotarod test.\nTo determine the neurotoxicity effects of (−)-NRG-DM, the standardized rotarod test was conducted in male ICR mice weighted 20 ± 2 g. The mice were divided at random into 4 groups (n = 10 for each group). The mice were placed on a rotarod appliance (YLS-4C, Bio-will, Shanghai, China) with a rod of 3 cm diameter, rotating at a constant speed of 6 rpm. The day before the compound test, all mice were pre-trained and only the animals able to remain on the rod for at least 1 min every time in three consecutive trials (3 min) were retained. During the test, the mice were measured in the rotarod test 0.5 h and 1 h after intraperitoneal administration of (−)-NRG-DM. The animals unable to remain on the rod for 3 consecutive periods were considered motor coordination impaired."}, "[4]": {"test_system": "mustard oil-induced colorectal pain", "assay": "mustard oil-induced mouse colorectal pain model", "format": "in vivo, C57BL/6 mice", "details": "30 min observation", "procedure": "The dose-dependent relief of somatic pain in the formalin model prompted us to ask whether it could attenuate the visceral pain. Thereby, we constructed the mustard oil-induced mouse colorectal pain model as previously described. […] As those observed in intraplantar formalin-induced pain, (−)-NRG-DM dose dependently relieved intracolonic mustard oil-caused writhing (Figure 3A). After intraperitoneal application of 30 mg/kg and 50 mg/kg (−)-NRG-DM, the writhing number reduced by approximately 60% and 80%, respectively (Figure 3B).\nMale C57BL/6 mice, weighing 23~25 g, were randomly assigned into 3 groups (n = 10 for each group) and placed in a transparent observation chamber for at least 20 min prior to the experiment. Mice were intraperitoneally administrated with vehicle or (−)-NRG-DM (30 or 50 mg/kg) 30 min before the injection of diluted mustard. Subsequently, 50 µL of diluted mustard oil solution (0.75% in 70% ethanol) was intracolonically administrated and the number of pain responses was counted for 30 min. In the present study, postures defined as pain-related behaviors were in agreement with previous descriptions: (1) licking of the abdomen, (2) stretching the abdomen, (3) squashing of lower abdomen against the floor, (4) abdominal wall retractions."}, "Nav1.8 channel": {"biological_target": "Nav1.8 channel (Homo sapiens, UniProt Q9Y5Y9)", "sequence (Q9Y5Y9 whole entry)": "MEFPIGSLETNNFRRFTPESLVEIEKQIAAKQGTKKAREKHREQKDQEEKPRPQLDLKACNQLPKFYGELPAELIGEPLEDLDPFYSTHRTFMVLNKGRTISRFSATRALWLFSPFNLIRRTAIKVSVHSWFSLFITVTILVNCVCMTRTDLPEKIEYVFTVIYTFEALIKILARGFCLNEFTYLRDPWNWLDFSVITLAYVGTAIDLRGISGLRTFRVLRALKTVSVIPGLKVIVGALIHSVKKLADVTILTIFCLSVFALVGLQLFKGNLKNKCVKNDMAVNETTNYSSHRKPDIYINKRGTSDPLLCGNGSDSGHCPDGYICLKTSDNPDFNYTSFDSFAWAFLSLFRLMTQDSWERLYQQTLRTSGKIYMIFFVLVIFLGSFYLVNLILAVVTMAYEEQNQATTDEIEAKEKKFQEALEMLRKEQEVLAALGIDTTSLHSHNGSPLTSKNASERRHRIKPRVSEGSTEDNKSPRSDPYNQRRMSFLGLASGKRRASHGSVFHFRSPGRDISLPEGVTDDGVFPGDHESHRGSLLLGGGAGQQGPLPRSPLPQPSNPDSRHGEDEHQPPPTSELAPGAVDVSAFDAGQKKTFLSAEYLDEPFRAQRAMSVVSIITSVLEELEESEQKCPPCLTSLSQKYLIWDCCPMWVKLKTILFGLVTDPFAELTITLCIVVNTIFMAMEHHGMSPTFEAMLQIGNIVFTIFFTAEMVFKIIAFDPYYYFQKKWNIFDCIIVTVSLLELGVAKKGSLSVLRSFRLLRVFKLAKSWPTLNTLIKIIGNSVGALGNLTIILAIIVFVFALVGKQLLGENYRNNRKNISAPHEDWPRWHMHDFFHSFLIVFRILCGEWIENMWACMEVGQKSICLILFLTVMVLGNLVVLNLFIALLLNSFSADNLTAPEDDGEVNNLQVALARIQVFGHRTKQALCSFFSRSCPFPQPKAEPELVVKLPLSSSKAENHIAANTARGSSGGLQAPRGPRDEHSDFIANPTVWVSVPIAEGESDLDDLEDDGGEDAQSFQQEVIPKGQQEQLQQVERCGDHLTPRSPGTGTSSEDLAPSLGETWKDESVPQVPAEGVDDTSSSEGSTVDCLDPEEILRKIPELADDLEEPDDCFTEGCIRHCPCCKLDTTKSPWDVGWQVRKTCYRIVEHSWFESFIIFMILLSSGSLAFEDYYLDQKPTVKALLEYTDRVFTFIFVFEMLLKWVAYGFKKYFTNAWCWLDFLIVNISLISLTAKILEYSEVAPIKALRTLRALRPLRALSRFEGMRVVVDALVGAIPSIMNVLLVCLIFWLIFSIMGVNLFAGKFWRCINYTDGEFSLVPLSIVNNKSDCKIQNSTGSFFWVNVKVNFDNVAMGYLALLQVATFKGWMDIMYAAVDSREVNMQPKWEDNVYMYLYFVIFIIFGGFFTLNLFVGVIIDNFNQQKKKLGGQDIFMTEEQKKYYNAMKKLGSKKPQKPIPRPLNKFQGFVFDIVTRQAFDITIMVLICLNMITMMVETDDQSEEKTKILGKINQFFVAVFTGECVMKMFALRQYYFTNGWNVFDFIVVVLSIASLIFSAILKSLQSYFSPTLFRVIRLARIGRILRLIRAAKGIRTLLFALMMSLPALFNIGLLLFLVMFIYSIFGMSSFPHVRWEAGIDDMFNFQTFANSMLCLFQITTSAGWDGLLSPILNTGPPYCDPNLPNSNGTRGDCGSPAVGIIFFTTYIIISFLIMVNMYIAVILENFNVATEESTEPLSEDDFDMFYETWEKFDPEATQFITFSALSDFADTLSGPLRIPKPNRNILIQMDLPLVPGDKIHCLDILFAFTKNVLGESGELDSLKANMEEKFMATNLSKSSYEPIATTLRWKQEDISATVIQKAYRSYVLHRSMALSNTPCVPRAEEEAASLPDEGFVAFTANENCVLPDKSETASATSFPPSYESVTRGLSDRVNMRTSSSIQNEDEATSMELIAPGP", "assay": "whole-cell patch-clamp, Nav1.8 stably expressed in HEK293 cells"}}}
{"smiles": "COc1ccc([C@H]2CC(=O)c3c(O)cc(OC)cc3O2)cc1", "note": "[(−)-NRG-DM, (−)-naringenin 4′,7-dimethyl ether]", "values": [{"measurement": "plasma concentration", "setting": "[1]; 0.5~1.5 h after i.p. injection at 50 mg/kg", "value": "around 7 µM"}, {"measurement": "concentration at 0.5 h", "setting": "[1]; male, ICR, mouse, ip, plasma, 50 mg/kg i.p., 0.5 h, mean ± SEM", "value": "2.29 ± 0.183", "unit": "µg/mL"}, {"measurement": "concentration at 1 h", "setting": "[1]; male, ICR, mouse, ip, plasma, 50 mg/kg i.p., 1 h, mean ± SEM", "value": "2.22 ± 1.25", "unit": "µg/mL"}, {"measurement": "concentration at 1.5 h", "setting": "[1]; male, ICR, mouse, ip, plasma, 50 mg/kg i.p., 1.5 h, mean ± SEM", "value": "0.717 ± 0.223", "unit": "µg/mL"}, {"measurement": "Concentration (μM/L)", "setting": "[1]; plasma, 50 mg/kg i.p., 0.5 h, mean ± SEM", "value": "7.64 ± 0.61", "unit": "µM"}, {"measurement": "Concentration (μM/L)", "setting": "[1]; plasma, 50 mg/kg i.p., 1 h, mean ± SEM", "value": "7.39 ± 4.17", "unit": "µM"}, {"measurement": "Concentration (μM/L)", "setting": "[1]; plasma, 50 mg/kg i.p., 1.5 h, mean ± SEM", "value": "2.39 ± 0.74", "unit": "µM"}, {"measurement": "IC50", "setting": "[2]", "value": "119.9 ± 0.03", "unit": "µM"}, {"measurement": "Fall nFall /nTest", "setting": "[3]; 100 mg/kg i.p., 0.5 h", "value": "0/10"}, {"measurement": "Motor Impairment (%)", "setting": "[3]; 100 mg/kg i.p., 0.5 h", "value": 0, "unit": "%"}, {"measurement": "Fall nFall /nTest", "setting": "[3]; 100 mg/kg i.p., 1 h", "value": "0/10"}, {"measurement": "Motor Impairment (%)", "setting": "[3]; 100 mg/kg i.p., 1 h", "value": 0, "unit": "%"}, {"measurement": "ability to remain on the rotating rod", "setting": "[3]; 100 mg/kg, 200 mg/kg, or 400 mg/kg i.p.", "value": "no significant effects"}, {"measurement": "Fall nFall /nTest", "setting": "[3]; 200 mg/kg i.p., 0.5 h", "value": "1/10"}, {"measurement": "Motor Impairment (%)", "setting": "[3]; 200 mg/kg i.p., 0.5 h", "value": 10, "unit": "%"}, {"measurement": "Fall nFall /nTest", "setting": "[3]; 200 mg/kg i.p., 1 h", "value": "0/10"}, {"measurement": "Motor Impairment (%)", "setting": "[3]; 200 mg/kg i.p., 1 h", "value": 0, "unit": "%"}, {"measurement": "Fall nFall /nTest", "setting": "[3]; 400 mg/kg i.p., 0.5 h", "value": "0/10"}, {"measurement": "Motor Impairment (%)", "setting": "[3]; 400 mg/kg i.p., 0.5 h", "value": 0, "unit": "%"}, {"measurement": "Fall nFall /nTest", "setting": "[3]; 400 mg/kg i.p., 1 h", "value": "0/10"}, {"measurement": "Motor Impairment (%)", "setting": "[3]; 400 mg/kg i.p., 1 h", "value": 0, "unit": "%"}, {"measurement": "signs of toxicity", "setting": "[3]; 100, 200, 400 mg/kg i.p., during rotarod test (0.5 and 1 h) and 24 h after administration", "value": "no sign of toxicity"}, {"measurement": "reduction of writhing number", "setting": "[4]; 30 mg/kg i.p.", "value": "approximately 60%"}, {"measurement": "reduction of writhing number", "setting": "[4]; 50 mg/kg i.p.", "value": "~80", "unit": "%"}, {"measurement": "inhibitory ratio", "setting": "Nav1.8 channel; 30 µM", "value": "44 ± 3", "unit": "%"}, {"measurement": "IDrug/IControl", "setting": "Nav1.8 channel; 30 μM, HEK293", "value": "0.56 ± 0.03"}, {"measurement": "V1/2 of steady-state inactivation of Nav1.8", "setting": "Nav1.8 channel; 30 µM, control −48.58 ± 0.67 mV", "value": "−53.37 ± 0.70", "unit": "mV"}]}
